Patent publication US9370183B2, “Use of ALS inhibitor herbicides for control of unwanted vegetation in ALS inhibitor herbicide tolerant Brassica, such as B. napus, plants” (Bayer Intellectual Property GmbH, priority 2011, dated 2016)
Where two headings read alike, the source gives them in different places.

Experiments:
[1] = biological target: T1, A. thaliana S653N-mutant ALS (Arabidopsis thaliana, UniProt P17597, E575Q/S653N); assay: biochemical; details: negative logarithm of the molar concentration inhibiting the enzyme activity by 50%, crude extract of E. coli expressing A. thaliana S653N ALS, 75 min, 30° C.; for IC50: read-out: ALS PI50 S653N (converted)
T1 construct: vector-encoded fusion of pET-32a(+) (Trx/His/S-tag by own knowledge of the vector); made in house; host or cells: Escherichia coli AD494
Experimental: (§1) Bacteria were grown at 37° C. in LB-medium containing 100 mg/l carbenicillin and 25 mg/l canamycin, induced with 1 mM isopropyl-β-D-thiogalactopyranoside at an OD600 of 0.6, cultivated for 16 hours at 18° C. and harvested by centrifugation. Bacterial pellets were resuspended in 100 mM sodium phosphate buffer pH 7.0 containing 0.1 mM thiamine-pyrophosphate, 1 mM MgCl2, and 1 μM FAD at a concentration of 1 gram wet weight per 25 ml of buffer and disrupted by sonification. The crude protein extract obtained after centrifugation was used for ALS activity measurements.
(§2) Assays were initiated by adding enzyme and terminated after 75 min incubation at 30° C. by the addition of 40 μl 0.5 M H2SO4.

[2] = biological target: T2, A. thaliana A205V-mutant ALS (Arabidopsis thaliana, UniProt P17597, A205V/E575Q); assay: biochemical; details: negative logarithm of the molar concentration inhibiting the enzyme activity by 50%, crude extract of E. coli expressing A. thaliana A205V ALS, 75 min, 30° C.; for IC50: read-out: ALS PI50 A205V (converted)
T2 construct: vector-encoded fusion of pET-32a(+) (Trx/His/S-tag by own knowledge of the vector); made in house; host or cells: Escherichia coli AD494
Experimental: as §1, §2

[3] = biological target: T3, A. thaliana wild-type ALS (Arabidopsis thaliana, UniProt P17597, E575Q); assay: biochemical; details: negative logarithm of the molar concentration inhibiting the enzyme activity by 50%, crude extract of E. coli expressing A. thaliana wild-type ALS, 75 min, 30° C.; for IC50: read-out: ALS PI50 WT (converted)
T3 construct: vector-encoded fusion of pET-32a(+) (Trx/His/S-tag by own knowledge of the vector); made in house; host or cells: Escherichia coli AD494
Experimental: as §1, §2

[4] = test system: B. napus wild type variety SR002201; assay: Greenhouse herbicide injury, visual scoring, wild type variety; assay type: in vivo, Brassica napus; details: spray at BBCH 12-13 with Mero 1 l/ha, visual scoring 14 days after application, 0%=no damage, 100%=all plants dead
Experimental: (§3) The individual components herbicide and surfactant with regard to type and application rate as stated in table 1 were added with stirring to a water application rate of 300 l/ha so that a homogeneous spray mixture was formed. The adjuvant Mero® (Bayer CropScience AG: active ingredient is 81% rapeseed oil methyl ester) was always added to the spray liquids with a use rate of one l/ha.
(§4) Seeds of B. napus were sown in a sandy loam soil and placed in a climate chamber in a greenhouse under good growth conditions (16 h light, temperature day 14° C., night: 8° C.). The plants (10 per experiment) were grown up to growth stage of BBCH 12 to BBCH 13. […] After the treatment, the plants were returned to the climate chamber.
(§5) Visual scoring was carried out using a percentage scale of 0%=no damage to 100%=all plants dead.

[5] = test system: B. napus mutant FM 202; assay type: in vivo, Brassica napus; details: spray at BBCH 12-13 with Mero 1 l/ha, visual scoring 14 days after application, 0%=no damage, 100%=all plants dead
Experimental: as §3, §4, §5

[6] = biological target: T4, A. thaliana W574L-mutant ALS (Arabidopsis thaliana, UniProt P17597, E575Q/W574L); assay type: biochemical; details: negative logarithm of the molar concentration inhibiting the enzyme activity by 50%; crude extract of E. coli expressing A. thaliana W574L ALS; 75 min, 30° C.
T4 construct: vector-encoded fusion of pET-32a(+) (Trx/His/S-tag by own knowledge of the vector); made in house; host or cells: Escherichia coli AD494
Experimental: as §1, §2

T3 sequence (P17597 56-670 E575Q): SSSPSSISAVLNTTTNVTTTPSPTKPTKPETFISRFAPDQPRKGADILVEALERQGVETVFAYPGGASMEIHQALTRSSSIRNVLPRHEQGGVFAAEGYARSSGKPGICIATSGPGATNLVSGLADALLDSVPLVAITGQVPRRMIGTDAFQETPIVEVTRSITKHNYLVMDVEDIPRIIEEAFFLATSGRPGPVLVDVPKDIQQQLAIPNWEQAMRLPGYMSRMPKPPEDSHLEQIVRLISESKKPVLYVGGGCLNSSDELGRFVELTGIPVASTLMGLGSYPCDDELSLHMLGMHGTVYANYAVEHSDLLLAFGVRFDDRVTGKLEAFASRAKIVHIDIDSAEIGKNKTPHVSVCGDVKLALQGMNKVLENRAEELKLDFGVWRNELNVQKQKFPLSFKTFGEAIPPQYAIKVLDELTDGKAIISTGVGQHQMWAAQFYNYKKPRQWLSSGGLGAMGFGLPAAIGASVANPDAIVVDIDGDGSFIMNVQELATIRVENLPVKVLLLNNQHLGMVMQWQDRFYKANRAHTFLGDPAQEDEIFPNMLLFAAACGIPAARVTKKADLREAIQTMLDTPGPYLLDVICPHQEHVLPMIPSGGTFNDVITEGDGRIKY
T1 sequence (P17597 56-670 E575Q/S653N): as the sequence (P17597 56-670 E575Q) above, with S598N counted along it
T2 sequence (P17597 56-670 A205V/E575Q): as the sequence (P17597 56-670 E575Q) above, with A150V counted along it
T4 sequence (P17597 56-670 W574L/E575Q): as the sequence (P17597 56-670 E575Q) above, with W519L counted along it

Row | SMILES | IC50 [1] | IC50 [2] | IC50 [3] | other results
1 | COc1cc(OC)n2nc(S(=O)(=O)Nc3c(Cl)ccc(C)c3Cl)nc2n1 [Metosulam, metosulam] | 39.8 nM | 794 nM | 3.16 nM | 
2 | COC(=O)c1sccc1S(=O)(=O)NC(=O)Nc1nc(C)nc(OC)n1 [Thifensulfuron-Methyl, thifensulfuron-methyl] | 158 nM | 631 nM | 31.6 nM | 
3 | COC(=O)c1csc(C)c1S(=O)(=O)NC(=O)n1nc(OC)n(C)c1=O [Thiencarbazone-methyl, thiencarbazone-methyl] |  |  |  | Herbicide injury on BRSNS [%] SR002201 ([4]; 20 g a.i./ha): 90%; Herbicide injury on BRSNS [%] FM 202 ([5]; 20 g a.i./ha): 0%
4 | COC(=O)c1ccc(CNS(C)(=O)=O)cc1S(=O)(=O)NC(=O)Nc1nc(OC)cc(OC)n1 [Mesosulfuron-methyl, mesosulfuron-methyl] |  |  |  | Herbicide injury on BRSNS [%] SR002201 ([4]; 15 g a.i./ha): 90%; Herbicide injury on BRSNS [%] FM 202 ([5]; 15 g a.i./ha): 0%
5 | COC(=O)c1ccccc1S(=O)(=O)NC(=O)Nc1nc(C)nc(OC)n1 [Metsulfuron-methyl, metsulfuron-methyl] |  |  |  | Herbicide injury on BRSNS [%] SR002201 ([4]; 8 g a.i./ha): 93%; Herbicide injury on BRSNS [%] FM 202 ([5]; 8 g a.i./ha): 0%
6 | CCS(=O)(=O)c1cccnc1S(=O)(=O)NC(=O)Nc1nc(OC)cc(OC)n1 [Rimsulfuron, rimsulfuron] | 2.51 nM | 158 nM | 10 nM | 
7 | COc1nc(C)nc(NC(=O)NS(=O)(=O)c2ccccc2Cl)n1 [Chlorsulfuron, chlorsulfuron] |  |  |  | Herbicide injury on BRSNS [%] SR002201 ([4]; 9 g a.i./ha): 97%; Herbicide injury on BRSNS [%] FM 202 ([5]; 9 g a.i./ha): 0%
8 | COc1ncc(F)c2nc(S(=O)(=O)Nc3c(F)cccc3F)nn12 [Florasulam, florasulam] |  |  |  | ALS PI50 S653N [1]: 7.6; ALS PI50 A205V [2]: 6.1; ALS PI50 WT [3]: 7.9; ALS PI50 W574L [6]: 4.6
9 | COc1cc(OC)nc(NC(=O)NS(=O)(=O)c2ncccc2C(F)(F)F)n1 [Flazasulfuron, flazasulfuron] |  | 15.8 nM | 2.51 nM | 
10 | COCc1cnc(C2=NC(C)(C(C)C)C(=O)N2)c(C(=O)O)c1 (stereo not shown) [Imazamox, imazamox] |  | > 100000 nM |  | Herbicide injury on BRSNS [%] SR002201 ([4]; 40 g a.i./ha): 93%; Herbicide injury on BRSNS [%] FM 202 ([5]; 40 g a.i./ha): 0%
11 | COc1cc(OC)nc(NC(=O)NS(=O)(=O)N(C)S(C)(=O)=O)n1 [Amidosulfuron, amidosulfuron] | 1.26 nM | 12600 nM |  | 
12 | COc1cc(OC)nc(Oc2cccc(Oc3nc(OC)cc(OC)n3)c2C(=O)O)n1 [Bispyribac-sodium, bispyribac-sodium] | 158 nM | 100 nM | 15.8 nM | 
13 | COc1cc(OC)nc(NC(=O)NS(=O)(=O)c2ncccc2C(=O)N(C)C)n1 [Nicosulfuron, nicosulfuron] | 1580 nM | 1000 nM | 63.1 nM | 
14 | COc1cc(OC)nc(NC(=O)NS(=O)(=O)c2cc(NC=O)ccc2C(=O)N(C)C)n1 [Foramsulfuron, foramsulfuron] |  | 501 nM |  | 
15 | COC(=O)c1ccc(I)cc1S(=O)(=O)[N-]C(=O)Nc1nc(C)nc(OC)n1.[Na+] [Iodosulfuron-methy-sodium, iodosulfuron-methyl-sodium] |  |  |  | Herbicide injury on BRSNS [%] SR002201 ([4]; 7 g a.i./ha): 95%; Herbicide injury on BRSNS [%] FM 202 ([5]; 7 g a.i./ha): 0%
16 | COC(=O)c1cccc(C)c1S(=O)(=O)NC(=O)Nc1nc(OCC(F)(F)F)nc(N(C)C)n1 [Triflusulfuron, triflusulfuron-methyl] |  |  |  | Herbicide injury on BRSNS [%] SR002201 ([4]; 20 g a.i./ha): 65%; Herbicide injury on BRSNS [%] FM 202 ([5]; 20 g a.i./ha): 0%
17 | CCS(=O)(=O)c1nc2ccccn2c1S(=O)(=O)NC(=O)Nc1nc(OC)cc(OC)n1 [Sulfosulfuron, sulfosulfuron] | 79.4 nM | 1260 nM | 15.8 nM | 
18 | CCOc1ccccc1OS(=O)(=O)NC(=O)Nc1nc(OC)cc(OC)n1 [Ethoxysulfuron, ethoxysulfuron] |  |  |  | Herbicide injury on BRSNS [%] SR002201 ([4]; 60 g a.i./ha): 98%; Herbicide injury on BRSNS [%] FM 202 ([5]; 60 g a.i./ha): 0%
19 | COC(=O)c1ccccc1S(=O)(=O)NC(=O)N(C)c1nc(C)nc(OC)n1 |  |  |  | Herbicide injury on BRSNS [%] SR002201 ([4]; 30 g a.i./ha): 95%; Herbicide injury on BRSNS [%] FM 202 ([5]; 30 g a.i./ha): 3%
